In assay [1] the target is T1, human Glucagon receptor (GCGR) (Homo sapiens, UniProt P47871).
T1 construct: A cDNA fragment encoding the full-length open reading frame of the human GCGR; expressed in transfected cells; host or cells: CHO-K1, pcDNA3.1+, Lipofectamine 2000
Description: cAMP accumulation assay, CHO-K1 cells expressing human GCGR. The format is cell-based. Conditions: mean pEC50, Table 10. An excerpt: (§1) In the presence of the non-specific cAMP/cGMP phosphodiesterase inhibitor, 3-isobutyl-1-methylxanthine (IBMX), accumulating cAMP can be measured in vitro using common detection methods. Thus, it is possible to estimate an in vitro potency (pEC50) for peptides activating each of these receptors using fit dose-response curves for cAMP accumulation.
A cDNA fragment encoding the full-length open reading frame of the cynomolgus monkey GLP-1R (Genebank accession #XM_028847603 was cloned into pcDNA3.1+ for expression in CHO-K1 cells. A cDNA fragment encoding the full-length open reading frame of the human GCGR (Genebank accession #NM_000160 was cloned into pcDNA3.1+ for expression in CHO-K1 cells. A cDNA fragment encoding the full-length open reading frame of the rat GCGR (Genebank accession #NM_12091 was cloned into pcDNA3.1+ for expression in CHO-K1 cells. A cDNA fragment encoding the full-length open reading frame of the cynomolgus monkey GCGR (Genebank accession #XM_005585255 was cloned into pcDNA3.1+ for expression in CHO-K1 cells.
(§2) On day 1, CHO-K1 cells were plated at 1.5 million cells per T75 flask in 90% F12-K media supplemented with 10% FBS. On day 3 cells were transfected with 40 mcg of each expression plasmid using Lipofectamine 2000 transfection reagent. On day 5, cells were dispensed at 1000 cells per well in white 384-well OptiPlates in 5 mcL of assay buffer consisting of 1×HBSS, 5 mM HEPES, 0.5 mM IBMX, and 0.1% casein.
(§3) Peptides were serially diluted 4-fold in assay buffer to final concentrations ranging from 1×10^−9 M to 9.5×10^−16 M. Two assay controls consisting of 50 mcM forskolin (cAMP system maximum) or assay buffer only (cAMP system minimum) were also prepared. Five microliters of each peptide-concentration, or assay control, was added to triplicate wells and incubated for thirty minutes at room temperature. During this incubation step a 4× europium labelled cAMP tracer solution and a 4× Ulight®-anti-cAMP solution (consisting of an anti-cAMP monoclonal antibody labelled with Ulight™ dye) was prepared according to the manufacturer's protocol (PerkinElmer LANCE Ultra cAMP kit). Following this incubation, 5 mcL europium labelled cAMP and 5 mcL Ulight anti-cAMP antibody was added to each well. The plate was covered to prevent evaporation and incubated for 60 minutes at room temperature in the dark. Plates were read on an Envision fluorescent plate reader (PerkinElmer).
(§4) Test values were first normalized to the system maximum and system minimum averaged values in Excel using the formula: (test value−system min average)/(system max average -system min average)*100. Normalized test values represent a baseline corrected percentage of the system maximum cAMP response induced by forskolin. Data from up to 3 replicate tests were analyzed for each peptide. Potency values were estimated using GraphPad Prism software (v7.04) by fitting data to a 4-parameter logistic curve model: Y=Bottom+(Top−Bottom)/(1+10^((LogEC50−X))). The Hill slope was constrained to 1.0. EC50 values were converted to pEC50 values using the formula: pEC50=−Log (EC50).
Background: Changes in cAMP serve as a functional read-out for many G protein-coupled receptors.

The target of assay [2] is T2, human GLP-1 receptor (GLP-1R) (Homo sapiens, UniProt P43220).
T2 construct: expressed in transfected cells
T2 sequence (P43220 24-463): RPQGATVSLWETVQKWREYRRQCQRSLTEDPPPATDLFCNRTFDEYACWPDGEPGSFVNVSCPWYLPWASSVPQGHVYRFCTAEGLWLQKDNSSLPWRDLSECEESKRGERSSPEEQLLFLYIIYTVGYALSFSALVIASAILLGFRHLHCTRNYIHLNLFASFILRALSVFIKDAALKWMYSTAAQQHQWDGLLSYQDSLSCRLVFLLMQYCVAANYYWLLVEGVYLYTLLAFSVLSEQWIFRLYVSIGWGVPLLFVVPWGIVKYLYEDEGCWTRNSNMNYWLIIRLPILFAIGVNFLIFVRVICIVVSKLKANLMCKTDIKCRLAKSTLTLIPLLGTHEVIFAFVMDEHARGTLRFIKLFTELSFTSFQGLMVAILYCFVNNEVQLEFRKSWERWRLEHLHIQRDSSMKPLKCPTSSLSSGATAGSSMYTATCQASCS
Description: cAMP accumulation assay, CHO-K1 cells stably expressing human GLP-1R. The format is cell-based. The following applies: cAMP accumulation, mean pEC50, Table 10. On the procedure:
as §1
CHO-K1 cells stably expressing human GLP-1R (Genebank accession #NM_002062) were grown in 90% F12-K media supplemented with 10% FBS and 250 μg/ml G418.
as §2, §3, §4

*1 amine or outer side, *2 acyl side, *3 side chain or, on linkers, in order; H or OH if unused. Where a SMILES comes first, the peptide text is derived from it. Side-chain parts run from the residue outwards. [ ]: non-standard residue; d: D form. The star is where a group is joined. C20 diacid = O=C(O)CCCCCCCCCCCCCCCCCCC(=O)*; γGlu = O=C(O)[C@H](CCC(=O)[*:2])N[*:1]; AEEA = NCCOCCOCC(=O)O; Aib = CC(C)(N)C(=O)O Where only a bound is given, the exact number is not on record here.

T1 sequence (P47871 26-477): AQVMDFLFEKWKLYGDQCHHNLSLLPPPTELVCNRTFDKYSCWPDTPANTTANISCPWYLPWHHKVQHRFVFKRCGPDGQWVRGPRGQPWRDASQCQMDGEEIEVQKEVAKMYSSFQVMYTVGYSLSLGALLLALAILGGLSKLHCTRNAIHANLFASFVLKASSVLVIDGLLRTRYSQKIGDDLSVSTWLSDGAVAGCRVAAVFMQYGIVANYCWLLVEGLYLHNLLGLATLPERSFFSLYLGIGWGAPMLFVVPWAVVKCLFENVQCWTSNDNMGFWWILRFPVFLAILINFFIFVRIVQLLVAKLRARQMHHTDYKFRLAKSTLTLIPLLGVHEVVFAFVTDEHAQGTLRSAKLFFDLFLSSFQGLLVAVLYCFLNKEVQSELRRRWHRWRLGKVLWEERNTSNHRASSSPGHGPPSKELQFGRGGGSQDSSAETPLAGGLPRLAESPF

In general, EC50 refers to the concentration giving half of the maximal effect. Molecule `CC(C)C[C@H](NC(=O)[C@H](Cc1ccc(O)cc1)NC(=O)[C@H](CCCCN)NC(=O)[C@H](CO)NC(=O)[C@H](Cc1ccc(O)cc1)NC(=O)[C@H](CC(=O)O)NC(=O)[C@H](CO)NC(=O)[C@@H](NC(=O)[C@H](Cc1ccccc1)NC(=O)[C@@H](NC(=O)CNC(=O)[C@H](Cc1c[nH]cn1)NC(=O)[C@H](CO)NC(=O)[C@@H](N)Cc1ccc(O)cc1)[C@@H](C)O)[C@@H](C)O)C(=O)N[C@@H](CCCCNC(=O)CC[C@H](NC(=O)CC[C@H](NC(=O)COCCOCCNC(=O)CCCCCCCCCCCCCCCCCCC(=O)O)C(=O)O)C(=O)O)C(=O)NC(C)(C)C(=O)N[C@@H](CCCCN)C(=O)N[C@@H](Cc1ccc(O)cc1)C(=O)N[C@@H](C)C(=O)N[C@@H](CCC(N)=O)C(=O)N[C@@H](CCC(=O)O)C(=O)N[C@@H](Cc1ccccc1)C(=O)N[C@H](C(=O)NC(C)(C)C(=O)N[C@@H](Cc1c[nH]c2ccccc12)C(=O)N[C@@H](CC(C)C)C(=O)N[C@@H](CCC(=O)O)C(=O)N[C@@H](CC(=O)O)C(=O)N[C@@H](CCC(=O)O)C(=O)N1CCC[C@H]1C(=O)N[C@@H](CO)C(=O)N[C@@H](CO)C(=O)NCC(=O)N[C@@H](C)C(=O)N1CCC[C@H]1C(=O)N1CCC[C@H]1C(=O)N1CCC[C@H]1C(=O)N[C@@H](CO)C(=O)O)C(C)C` [Compound A1] (H-YSHGTFTSDYSKYLK([γGlu-γGlu-AEEA-C20 diacid])[Aib]KYAQEFV[Aib]WLEDEPSSGAPPPS-OH) gave an EC50 in assay [1] of 3.16 pM.

On to `CC(C)C[C@H](NC(=O)[C@H](Cc1ccc(O)cc1)NC(=O)[C@H](CCCCN)NC(=O)[C@H](CO)NC(=O)[C@H](Cc1ccc(O)cc1)NC(=O)[C@H](CC(=O)O)NC(=O)[C@H](CO)NC(=O)[C@@H](NC(=O)[C@H](Cc1ccccc1)NC(=O)[C@@H](NC(=O)CNC(=O)[C@H](Cc1c[nH]cn1)NC(=O)[C@H](CO)NC(=O)[C@@H](N)Cc1ccc(O)cc1)[C@@H](C)O)[C@@H](C)O)C(=O)N[C@@H](CC(=O)O)C(=O)NC(C)(C)C(=O)N[C@@H](CCCCN)C(=O)N[C@@H](CCCCNC(=O)CC[C@H](NC(=O)CC[C@H](NC(=O)COCCOCCNC(=O)CCCCCCCCCCCCCCCCCCC(=O)O)C(=O)O)C(=O)O)C(=O)N[C@@H](C)C(=O)N[C@@H](CCC(N)=O)C(=O)N[C@@H](CCC(=O)O)C(=O)N[C@@H](Cc1ccccc1)C(=O)N[C@H](C(=O)NC(C)(C)C(=O)N[C@@H](Cc1c[nH]c2ccccc12)C(=O)N[C@@H](CC(C)C)C(=O)N[C@@H](CCC(=O)O)C(=O)N[C@@H](CC(=O)O)C(=O)N[C@@H](CCC(=O)O)C(=O)N1CCC[C@H]1C(=O)N[C@@H](CO)C(=O)N[C@@H](CO)C(=O)NCC(=O)N[C@@H](C)C(=O)N1CCC[C@H]1C(=O)N1CCC[C@H]1C(=O)N1CCC[C@H]1C(=O)N[C@@H](CO)C(=O)O)C(C)C` [Compound A4] (H-YSHGTFTSDYSKYLD[Aib]KK([γGlu-γGlu-AEEA-C20 diacid])AQEFV[Aib]WLEDEPSSGAPPPS-OH; N-terminus assumed), for which the EC50 in assay [1] was 2 pM.

For the molecule `CC(C)C[C@H](NC(=O)[C@H](Cc1ccc(O)cc1)NC(=O)[C@H](CCCCN)NC(=O)[C@H](CO)NC(=O)[C@H](Cc1ccc(O)cc1)NC(=O)[C@H](CC(=O)O)NC(=O)[C@H](CO)NC(=O)[C@@H](NC(=O)[C@H](Cc1ccccc1)NC(=O)[C@@H](NC(=O)CNC(=O)[C@H](Cc1c[nH]cn1)NC(=O)[C@H](CO)NC(=O)[C@@H](N)Cc1ccc(O)cc1)[C@@H](C)O)[C@@H](C)O)C(=O)N[C@@H](CC(=O)O)C(=O)NC(C)(C)C(=O)N[C@@H](CCCCN)C(=O)N[C@@H](Cc1ccc(O)cc1)C(=O)N[C@@H](C)C(=O)N[C@@H](CCCCNC(=O)CC[C@H](NC(=O)CC[C@H](NC(=O)COCCOCCNC(=O)CCCCCCCCCCCCCCCCCCC(=O)O)C(=O)O)C(=O)O)C(=O)N[C@@H](CCC(=O)O)C(=O)N[C@@H](Cc1ccccc1)C(=O)N[C@H](C(=O)NC(C)(C)C(=O)N[C@@H](Cc1c[nH]c2ccccc12)C(=O)N[C@@H](CC(C)C)C(=O)N[C@@H](CCC(=O)O)C(=O)N[C@@H](CC(=O)O)C(=O)N[C@@H](CCC(=O)O)C(=O)N1CCC[C@H]1C(=O)N[C@@H](CO)C(=O)N[C@@H](CO)C(=O)NCC(=O)N[C@@H](C)C(=O)N1CCC[C@H]1C(=O)N1CCC[C@H]1C(=O)N1CCC[C@H]1C(=O)N[C@@H](CO)C(=O)O)C(C)C` [Compound A5] (H-YSHGTFTSDYSKYLD[Aib]KYAK([γGlu-γGlu-AEEA-C20 diacid])EFV[Aib]WLEDEPSSGAPPPS-OH; N-terminus assumed), the EC50 in assay [1] is 2.51 pM.

In the case of `CC(C)C[C@H](NC(=O)[C@H](Cc1ccc(O)cc1)NC(=O)[C@H](CCCCN)NC(=O)[C@H](CO)NC(=O)[C@H](Cc1ccc(O)cc1)NC(=O)[C@H](CC(=O)O)NC(=O)[C@H](CO)NC(=O)[C@@H](NC(=O)[C@H](Cc1ccccc1)NC(=O)[C@@H](NC(=O)CNC(=O)[C@H](Cc1c[nH]cn1)NC(=O)[C@H](CO)NC(=O)[C@@H](N)Cc1ccc(O)cc1)[C@@H](C)O)[C@@H](C)O)C(=O)N[C@@H](CC(=O)O)C(=O)N[C@@H](CCCCNC(=O)CC[C@H](NC(=O)CC[C@H](NC(=O)COCCOCCNC(=O)CCCCCCCCCCCCCCCCCCC(=O)O)C(=O)O)C(=O)O)C(=O)N[C@@H](CCCCN)C(=O)N[C@@H](Cc1ccc(O)cc1)C(=O)N[C@@H](C)C(=O)N[C@@H](CCC(N)=O)C(=O)N[C@@H](CCC(=O)O)C(=O)N[C@@H](Cc1ccccc1)C(=O)NC(C)(C)C(=O)N[C@@H](CCC(N)=O)C(=O)N[C@@H](Cc1c[nH]c2ccccc12)C(=O)N[C@@H](CC(C)C)C(=O)N[C@@H](CCC(=O)O)C(=O)N[C@@H](CC(=O)O)C(=O)N[C@@H](CCC(=O)O)C(=O)N1CCC[C@H]1C(=O)N[C@@H](CO)C(=O)N[C@@H](CO)C(=O)NCC(=O)N[C@@H](C)C(=O)N1CCC[C@H]1C(=O)N1CCC[C@H]1C(=O)N1CCC[C@H]1C(=O)N[C@@H](CO)C(=O)O` [Compound A7] (H-YSHGTFTSDYSKYLDK([γGlu-γGlu-AEEA-C20 diacid])KYAQEF[Aib]QWLEDEPSSGAPPPS-OH; N-terminus assumed), the EC50 is 20 pM in assay [1] and greater than 1 nM in assay [2].

As to `CC(C)C[C@H](NC(=O)[C@H](Cc1ccc(O)cc1)NC(=O)[C@H](CCCCN)NC(=O)[C@H](CO)NC(=O)[C@H](Cc1ccc(O)cc1)NC(=O)[C@H](CC(=O)O)NC(=O)[C@H](CO)NC(=O)[C@@H](NC(=O)[C@H](Cc1ccccc1)NC(=O)[C@@H](NC(=O)CNC(=O)[C@H](Cc1c[nH]cn1)NC(=O)[C@H](CO)NC(=O)[C@@H](N)Cc1ccc(O)cc1)[C@@H](C)O)[C@@H](C)O)C(=O)N[C@@H](CC(=O)O)C(=O)N[C@@H](CCCCNC(=O)CC[C@H](NC(=O)CC[C@H](NC(=O)COCCOCCNC(=O)CCCCCCCCCCCCCCCCCCC(=O)O)C(=O)O)C(=O)O)C(=O)N[C@@H](CCCCN)C(=O)N[C@@H](Cc1ccc(O)cc1)C(=O)N[C@@H](C)C(=O)N[C@@H](CCC(N)=O)C(=O)N[C@@H](CCC(=O)O)C(=O)N[C@@H](Cc1ccccc1)C(=O)NC(C)(C)C(=O)N[C@@H](CCC(=O)O)C(=O)N[C@@H](Cc1c[nH]c2ccccc12)C(=O)N[C@@H](CC(C)C)C(=O)N[C@@H](CCC(=O)O)C(=O)N[C@@H](CC(=O)O)C(=O)N[C@@H](CCC(=O)O)C(=O)N1CCC[C@H]1C(=O)N[C@@H](CO)C(=O)N[C@@H](CO)C(=O)NCC(=O)N[C@@H](C)C(=O)N1CCC[C@H]1C(=O)N1CCC[C@H]1C(=O)N1CCC[C@H]1C(=O)N[C@@H](CO)C(=O)O` [Compound A8] (H-YSHGTFTSDYSKYLDK([γGlu-γGlu-AEEA-C20 diacid])KYAQEF[Aib]EWLEDEPSSGAPPPS-OH; N-terminus assumed), the EC50 in assay [1] is 126 pM; in assay [2] it was greater than 1 nM.
